Data from US20230203081A1, “LINCOSAMIDE ANTIBIOTICS AND USES THEREOF” (President and Fellows of Harvard College, priority 2020, published 2023).
In brackets after ≈: the same amount, converted by molar mass. Where two headings read alike, the source gives them in different places.

Columns and labels:
Type in all cases: cell-based
[1] = test system: broad panel of different clinical isolates; assay: microbe, parasite or virus in culture
Outline: (§1)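 Isolates other than streptococci and anaerobes, which had their own procedures, were grown overnight at 35° C on tryptic soy agar with 5% sheep blood. Suspensions were then diluted to a final inoculum of 5×10^5 CFU/mL in broth microdilution wells.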

E. coli LptD = assay: MIC (broth microdilution or agar dilution, CLSI); conditions: Escherichia coli, read-out: MIC
Outline: as §1

E. faecalis ATCC 29212 = assay: MIC (broth microdilution or agar dilution, CLSI); conditions: Enterococcus faecalis, read-out: MIC
Outline: as §1

K. oxytoca Clinical = assay: MIC (broth microdilution or agar dilution, CLSI)
Outline: as §1

K. pneumoniae ATCC 10031 = assay: MIC (broth microdilution or agar dilution, CLSI); conditions: Klebsiella pneumoniae, ATCC10031, K. pneumoniae HAV#008, ATCC 10031; read-out: MIC
Outline: as §1

S. aureus ATCC 29213 = assay: MIC (broth microdilution or agar dilution, CLSI); conditions: Staphylococcus aureus, read-out: MIC
Outline: as §1

S. aureus ATCC 700699 = assay: MIC (broth microdilution or agar dilution, CLSI); conditions: Staphylococcus aureus, read-out: MIC
Outline: as §1

[2] = test system: S. aureus ATCC BAA-1707 (MRSA); assay: MIC (broth microdilution or agar dilution, CLSI)
Outline: as §1

S. aureus MMX 3035 cErmA = assay: MIC (broth microdilution or agar dilution, CLSI)
Outline: as §1

S. aureus hVISA = assay: MIC (broth microdilution or agar dilution, CLSI)
Outline: as §1

S. pneumoniae ATCC 49619 = assay: MIC (broth microdilution or agar dilution, CLSI); conditions: Streptococcus pneumoniae, ATCC49619, S. pneumoniae HAV#003, ATCC 49619; read-out: MIC
Outline: as §1

[3] = test system: S. pneumoniae MMX 3028 cErmB; assay: MIC (broth microdilution or agar dilution, CLSI)
Outline: as §1

[4] = test system: S. pneumoniae MMX 3031 cMefA; assay: MIC (broth microdilution or agar dilution, CLSI); conditions: Streptococcus pneumoniae, MMX3031CMEFA, read-out: MIC
Outline: as §1

S. pyogenes ATCC 19615 = assay: MIC (broth microdilution or agar dilution, CLSI); conditions: Streptococcus pyogenes, read-out: MIC
Outline: as §1

[5] = test system: S. pyogenes MMX 946; cErmB; assay: MIC (broth microdilution or agar dilution, CLSI); conditions: for MIC: cErmB
Outline: as §1

CSC1O[C@H]([C@H](NC(=O)[C@H]2NC[C@@H]3C[C@H](CC(C)C)CCO[C@H]32)[C@H](C)Cl)C(O)[C@@H](O)[C@H]1O (some centres unmarked) [FSA-513018b]
MIC ([1]; Klebsiella pneumoniae, K. pneumoniae HAV#409, ESBL-producing): 16 mg/L (≈ 32.3 µM) | MIC ([1]; Neisseria gonorrhoeae, N. gonorrhoeae HAV#701, Clinical): 0.125 mg/L (≈ 0.252 µM) | MIC ([1]; Neisseria gonorrhoeae, N. gonorrhoeae HAV#702, Clinical): 0.125 mg/L (≈ 0.252 µM) | MIC ([1]; Staphylococcus aureus, MRSA, S. aureus HAV#218, Line R): 0.125 mg/L (≈ 0.252 µM) | MIC ([1]; Staphylococcus aureus, MRSA, S. aureus HAV#220, Line R): > 128 mg/L | MIC ([1]; Staphylococcus aureus, MSSA, S. aureus HAV#219, Line R): > 128 mg/L | MIC ([1]; Staphylococcus aureus, S. aureus HAV#051, mecA, norA, spcl, ermA, aad1, aac6′-aph2″): ≤ 0.03 mg/L | MIC ([1]; Staphylococcus aureus, S. aureus HAV#052, mecA, norA, fosB, blaZ): ≤ 0.03 mg/L | MIC ([1]; Staphylococcus aureus, S. aureus HAV#053 mecA, norA, fosB): ≤ 0.03 mg/L | MIC ([1]; Staphylococcus aureus, S. aureus HAV#211, Clinical): 2 mg/L (≈ 4.04 µM) | MIC ([1]; Staphylococcus aureus, S. aureus HAV#212, Clinical): 0.06 mg/L (≈ 0.121 µM) | MIC ([1]; Staphylococcus aureus, S. aureus HAV#213, Clinical): 0.06 mg/L (≈ 0.121 µM) | MIC ([1]; Staphylococcus aureus, S. aureus HAV#214, Clinical): 0.03 mg/L (≈ 0.0606 µM) | MIC ([1]; Staphylococcus aureus, S. aureus HAV#215, Clinical): 0.06 mg/L (≈ 0.121 µM) | MIC ([1]; Staphylococcus aureus, S. aureus HAV#216, Clinical, cfr): 2 mg/L (≈ 4.04 µM) | MIC ([1]; Staphylococcus aureus, VISA, S. aureus HAV#203, Clinical (VISA)): 1 mg/L (≈ 2.02 µM) | MIC ([1]; Staphylococcus epidermidis, S. epidermidis HAV# 275 Clinical, cfr): 8 mg/L (≈ 16.2 µM) | MIC ([1]; Staphylococcus epidermidis, S. epidermidis HAV# 276, cfr): > 16 mg/L | MIC ([1]; Staphylococcus epidermidis, S. epidermidis HAV#277, Line R): 16 mg/L (≈ 32.3 µM) | MIC ([1]; Staphylococcus epidermidis, S. epidermidis HAV#278 Line R): 32 mg/L (≈ 64.6 µM) | MIC ([1]; Staphylococcus epidermidis, S. epidermidis HAV#279, Line R): 0.125 mg/L (≈ 0.252 µM) | MIC ([1]; Staphylococcus haemolyticus, S. haemolyticus 5052, Line R & Methicillin R): 0.06 mg/L (≈ 0.121 µM) | MIC ([1]; Staphylococcus haemolyticus, S. haemolyticus HAV#252, Line R & Methicillin R): 0.125 mg/L (≈ 0.252 µM) | MIC ([1]; Streptococcus pneumoniae, ATCC700673, S. pneumoniae HAV#352, ATCC 700673, MDR): 0.5 mg/L (≈ 1.01 µM) | MIC ([1]; Streptococcus pneumoniae, ATCCBAA255, S. pneumoniae HAV#354, ATCC-BAA-255): 0.125 mg/L (≈ 0.252 µM) | MIC ([1]; Streptococcus pneumoniae, ATCCBAA334, S. pneumoniae HAV#353, ATCC-BAA-334): 0.125 mg/L (≈ 0.252 µM) | MIC ([1]; Streptococcus pneumoniae, S. pneumoniae HAV#356, Clinical): 0.25 mg/L (≈ 0.505 µM) | MIC ([1]; Streptococcus pneumoniae, S. pneumoniae HAV#358, Clinical): 0.125 mg/L (≈ 0.252 µM) | MIC (E. coli LptD; E. coli HAV#040, LptD): 1 mg/L (≈ 2.02 µM) | MIC (E. coli LptD; E. coli LptD): 1 mg/L (≈ 2.02 µM) | MIC (E. faecalis ATCC 29212; ATCC29212, E. faecalis ATCC 29212): ≤ 0.06 mg/L | MIC (E. faecalis ATCC 29212; ATCC29212, E. faecalis HAV#005, ATCC 29212): 0.06 mg/L (≈ 0.121 µM) | MIC (K. oxytoca Clinical; K. oxytoca HAV#450, Clinical): 8 mg/L (≈ 16.2 µM) | MIC (K. oxytoca Clinical; Klebsiella oxytoca, K. oxytoca Clinical, read-out: MIC): 8 mg/L (≈ 16.2 µM) | MIC (K. pneumoniae ATCC 10031): 0.25 mg/L (≈ 0.505 µM) | MIC (S. aureus ATCC 29213; ATCC29213, S. aureus ATCC 29213): ≤ 0.06 mg/L | MIC (S. aureus ATCC 29213; ATCC29213, S. aureus HAV#001, ATCC 29213, MP-549): 0.06 mg/L (≈ 0.121 µM) | MIC (S. aureus ATCC 700699; ATCC700699, S. aureus ATCC 700699): 2 mg/L (≈ 4.04 µM) | MIC (S. aureus ATCC 700699; S. aureus HAV#202, ATCC 700699 (VISA)): 2 mg/L (≈ 4.04 µM) | MIC ([2]; S. aureus HAV#016, ATCC BAA-1707, MRSA): 0.06 mg/L (≈ 0.121 µM) | MIC ([2]; Staphylococcus aureus, S. aureus ATCC BAA-1707 (MRSA), read-out: MIC): 0.06 mg/L (≈ 0.121 µM) | MIC (S. aureus MMX 3035 cErmA; S. aureus HAV#031, MMX 3035, cErmA): 4 mg/L (≈ 8.08 µM) | MIC (S. aureus MMX 3035 cErmA; Staphylococcus aureus, MMX3035CERMA, S. aureus MMX 3035 cErmA, read-out: MIC): 4 mg/L (≈ 8.08 µM) | MIC (S. aureus hVISA; S. aureus HAV#204, hVISA): 1 mg/L (≈ 2.02 µM) | MIC (S. aureus hVISA; Staphylococcus aureus, S. aureus hVISA, read-out: MIC): 1 mg/L (≈ 2.02 µM) | MIC (S. pneumoniae ATCC 49619): 0.015 mg/L (≈ 0.0303 µM) | MIC ([3]; S. pneumoniae HAV#033, MMX 3028, cErmB): 0.25 mg/L (≈ 0.505 µM) | MIC lower than that of clindamycin (fold) ([3]; S. pneumoniae, c-ermB-mediated resistance): ≥ 1,000 × | MIC ([3]; Streptococcus pneumoniae, MMX3028CERMB, S. pneumoniae MMX 3028 cErmB, read-out: MIC): 0.25 mg/L (≈ 0.505 µM) | MIC ([4]; S. pneumoniae HAV#034, MMX 3031, cMefA): 0.03 mg/L (≈ 0.0606 µM) | MIC ([4]; S. pneumoniae MMX 3031 cMefA): ≤ 0.06 mg/L | MIC (S. pyogenes ATCC 19615; ATCC19615, S. pyogenes ATCC 19615): ≤ 0.06 mg/L | MIC (S. pyogenes ATCC 19615; ATCC19615, S. pyogenes HAV#004, ATCC 19615): 0.03 mg/L (≈ 0.0606 µM) | MIC ([5]; S. pyogenes HAV#035, MMX 946, mac-resistant): 0.25 mg/L (≈ 0.505 µM) | MIC lower than that of clindamycin (fold) ([5]; S. pyogenes, c-ermB-mediated resistance): ≥ 1,000 × | MIC ([5]; Streptococcus pyogenes, S. pyogenes MMX 946, read-out: MIC): 0.25 mg/L (≈ 0.505 µM)
